Assay results: patent US20250188082A1, “Use of Hypoxanthine Compound In Preparation of Drug For Treating Pulmonary Fibrosis” (Sichuan Yiasuo Pharmaceutical Technology Co., Ltd., priority 2022, published 2025)

Legend:
Assay type in all cases: in vivo, C57BL/6 mice
[1] = system: influenza B virus-induced pulmonary fibrosis model (influenza B (H7N9) virus); details: 120 mg/kg/d intragastric, 14 days; for Ashcroft scores: influenza B virus + bleomycin, lung tissue HE; for IL-1β / NF-κB / TNF-α / IL-6: serum, from two weeks after model; for IL-1β / NF-κB / TNF-α: influenza B (H7N9) + bleomycin; for IL-6: influenza B + bleomycin
[2] = system: coronavirus-induced pulmonary fibrosis model (HcoV-OC43); test: Coronavirus-induced pulmonary fibrosis model; details: 120 mg/kg/d intragastric, 14 days; for Ashcroft scores: coronavirus HcoV-OC43 + bleomycin, lung tissue HE; for IL-1β / IL-6 / NF-κB / TNF-α: serum, HcoV-OC43 + bleomycin, from two weeks after model
Source text: Experimental method: an in-vivo coronavirus-induced pulmonary fibrosis model mice was established: C57BL/6 mice (with weights being 22-25 g) were randomly and evenly divided into a plurality of groups, including blank control group, model group, Nintedanib positive control group, hypoxanthine analogue A group, hypoxanthine analogue B group, hypoxanthine analogue C group, compound 1 group, compound 2 group . . . compound 12 group, with 9 mice in each group. On Day 1, the mice in the blank control group were instilled with normal saline nasally, and the mice in other groups were all infected with HcoV-OC43 coronavirus strains (30 μL) through nasal instillation. On Day 2, the mice received 5 mg/kg bleomycin through tracheas to induce their pulmonary fibrosis. After the model was established for two weeks, the mice in each group were intragastrically administrated for intervention for consecutive 14 days; the mice in blank control group and model group intragastrically received the same dosage of the normal saline as those in drug groups; the mice in Nintedanib positive control group received Nintedanib (120 mg/kg); the mice in hypoxanthine analogue A group, hypoxanthine analogue B group and hypoxanthine analogue C group respectively received hypoxanthine analogue A (120 mg/kg/d), hypoxanthine analogue B (120 mg/kg/d) and hypoxanthine analogue C (120 mg/kg/d); and the mice in compound 1 group, compound 2 group . . . compound 12 group respectively received compound 1 (120 mg/kg/d), compound 2 (120 mg/kg/d) . . . compound 12 (120 mg/kg/d) prepared in example 1. After administration for consecutive 14 days, the mice were observed every day, and their weights and death conditions were recorded. After administration, blood was taken from eyeballs for immediately detecting the expression levels of NF-κB, TNF-α, IL-1 and IL-6 in serum, and lung tissues were taken for HE detection and Ashcroft scoring.

[3] = system: mycoplasma-induced pulmonary fibrosis model (MPFH strain); test: Mycoplasma-induced pulmonary fibrosis model; details: 120 mg/kg/d intragastric, 14 days; for Leucocyte / Lymphocyte / Neutrophil: MPFH mycoplasma + bleomycin, once a day, from two weeks after model; for Ashcroft scores: mycoplasma + bleomycin, lung tissue HE
Source text: Experimental method: an in-vivo mycoplasma-induced pulmonary fibrosis model was established: C57BL/6 mice (with weights being 22-25 g) were randomly and evenly divided into a plurality of groups, including blank control group, model group, Nintedanib positive control group, hypoxanthine analogue A group, hypoxanthine analogue B group, hypoxanthine analogue C group, compound 1 group, compound 2 group . . . compound 12 group, with 9 mice in each group. Before a model was established, the mice were anesthetized with diethyl ether. In addition to that the mice in blank control group with instilled with 100 μL of normal saline nasally, the mice in other groups with slowly instilled with an equal volume of a MPFH strain solution (containing 1×10^7 mL^−1 MPFH strain) to the nasal cavity, for consecutive 3 days, and inhaled the MPFH strain solution into bronchi. After instillation with mycoplasmas through tracheas, the mice received 5 mg/kg bleomycin through tracheas to induce their pulmonary fibrosis. After the model was established for two weeks, the mice in each group were intragastrically administrated for intervention for consecutive 14 days; the mice in blank control group and model group intragastrically received an equal dosage of normal saline as those in drug groups; the mice in Nintedanib positive control group received Nintedanib (120 mg/kg); the mice in hypoxanthine analogue A group, hypoxanthine analogue B group and hypoxanthine analogue C group respectively received hypoxanthine analogue A (120 mg/kg/d), hypoxanthine analogue B (120 mg/kg/d) and hypoxanthine analogue C (120 mg/kg/d); and the mice in compound 1 group, compound 2 group . . . compound 12 group respectively received compound 1 (120 mg/kg/d), compound 2 (120 mg/kg/d) . . . compound 12 (120 mg/kg/d) prepared in example 1. The mice were administrated once a day to be treated for consecutive 14 days. The mice were observed every day, and their weights and death conditions were recorded. On the last day of administration, the mice were sacrificed; and blood was taken from eyeballs and kept at −80° C. for detecting blood routine indexes. Meanwhile, lungs were lavaged with normal saline and separated to collect lavage fluids for detecting counts and classes of leucocytes; and lung tissues were taken for HE straining and Ashcroft scoring on the extent of pulmonary fibrosis.

Question: What does the source list for COC(=O)c1ccc2c(c1)NC(=O)/C2=C(\Nc1ccc(N(C)C(=O)CN2CCN(C)CC2)cc1)c1ccccc1 [Nintedanib, reference compound]?
Answer: Ashcroft scores [1]: 4.08; IL-1β [1]: 166.3 pg/mL; NF-κB [1]: 529.7 pg/mL; TNF-α [1]: 141.3 pg/mL; IL-6 [1]: 176.1 pg/mL; Ashcroft scores [2]: 4.11; IL-1β [2]: 525.3 pg/mL; IL-6 [2]: 421.5 pg/mL; NF-κB [2]: 521.3 pg/mL; TNF-α [2]: 411.3 pg/mL; Leucocyte [3]: 122.15 10^9/L; Lymphocyte [3]: 565.69 10^9/L; Neutrophil [3]: 232.24 10^9/L; Ashcroft scores [3]: 5.45

Question: CC(C)n1cnc2c(=O)[nH]cnc21 [Compound 2] was tested. Which Ashcroft scores [1] did it give?
Answer: Its Ashcroft scores is 1.09.

Question: And the IL-1β [1]?
Answer: Its IL-1β is 26.6 pg/mL.

Question: And the NF-κB [1]?
Answer: The NF-κB was 29.5 pg/mL.

Question: And the TNF-α [1]?
Answer: Its TNF-α is 72.6 pg/mL.

Question: And the IL-6 [1]?
Answer: Its IL-6 is 65.4 pg/mL.

Question: What about the Ashcroft scores [2] of the same compound?
Answer: Its Ashcroft scores is 1.16.

Question: And the IL-1β [2]?
Answer: Its IL-1β is 32.0 pg/mL.

Question: What about the IL-6 [2] of the same compound?
Answer: The IL-6 was 62.6 pg/mL.

Question: And the NF-κB [2]?
Answer: Its NF-κB is 24.6 pg/mL.

Question: And the TNF-α [2]?
Answer: The TNF-α was 51.2 pg/mL.

Question: And the Leucocyte [3]?
Answer: The Leucocyte was 6.42 10^9/L.

Question: What about the Lymphocyte [3] of the same compound?
Answer: The Lymphocyte was 72.69 10^9/L.

Question: What about the Neutrophil [3] of the same compound?
Answer: The Neutrophil was 21.93 10^9/L.

Question: What about the Ashcroft scores [3] of the same compound?
Answer: The Ashcroft scores was 1.20.

Question: CC(C)n1cnc2nc[nH]c(=O)c21 [Compound 6] was tested. Which Ashcroft scores [1] did it give?
Answer: Its Ashcroft scores is 1.14.

Question: What about the IL-1β [1] of the same compound?
Answer: Its IL-1β is 27.2 pg/mL.

Question: What about the NF-κB [1] of the same compound?
Answer: Its NF-κB is 32.4 pg/mL.

Question: What about the TNF-α [1] of the same compound?
Answer: The TNF-α was 75.3 pg/mL.

Question: What about the IL-6 [1] of the same compound?
Answer: The IL-6 was 65.6 pg/mL.

Question: What about the Ashcroft scores [2] of the same compound?
Answer: The Ashcroft scores was 1.30.

Question: What about the IL-1β [2] of the same compound?
Answer: Its IL-1β is 39.5 pg/mL.

Question: And the IL-6 [2]?
Answer: The IL-6 was 65.7 pg/mL.

Question: And the NF-κB [2]?
Answer: Its NF-κB is 29.3 pg/mL.

Question: And the TNF-α [2]?
Answer: The TNF-α was 56.2 pg/mL.

Question: And the Leucocyte [3]?
Answer: The Leucocyte was 6.05 10^9/L.

Question: And the Lymphocyte [3]?
Answer: Its Lymphocyte is 71.57 10^9/L.

Question: What about the Neutrophil [3] of the same compound?
Answer: Its Neutrophil is 22.72 10^9/L.

Question: And the Ashcroft scores [3]?
Answer: The Ashcroft scores was 1.17.

Question: Which results are given for CCC(=O)Oc1ncnc2c1ncn2C(C)C [Compound 12]?
Answer: Ashcroft scores [1]: 1.26; IL-1β [1]: 27.8 pg/mL; NF-κB [1]: 32.9 pg/mL; TNF-α [1]: 75.4 pg/mL; IL-6 [1]: 69.7 pg/mL; Ashcroft scores [2]: 1.37; IL-1β [2]: 35.8 pg/mL; IL-6 [2]: 66.5 pg/mL; NF-κB [2]: 27.7 pg/mL; TNF-α [2]: 54.4 pg/mL; Leucocyte [3]: 6.12 10^9/L; Lymphocyte [3]: 74.46 10^9/L; Neutrophil [3]: 21.68 10^9/L; Ashcroft scores [3]: 1.12

Question: For CCCOc1ncnc2c1ncn2C(C)C [Compound 9], which Ashcroft scores [1] is on record?
Answer: The Ashcroft scores was 1.23.

Question: And the IL-1β [1]?
Answer: The IL-1β was 26.9 pg/mL.

Question: And the NF-κB [1]?
Answer: The NF-κB was 30.8 pg/mL.

Question: What about the TNF-α [1] of the same compound?
Answer: The TNF-α was 73.8 pg/mL.

Question: And the IL-6 [1]?
Answer: The IL-6 was 66.1 pg/mL.

Question: And the Ashcroft scores [2]?
Answer: Its Ashcroft scores is 1.31.

Question: And the IL-1β [2]?
Answer: Its IL-1β is 35.9 pg/mL.

Question: What about the IL-6 [2] of the same compound?
Answer: The IL-6 was 64.3 pg/mL.

Question: What about the NF-κB [2] of the same compound?
Answer: Its NF-κB is 24.4 pg/mL.

Question: And the TNF-α [2]?
Answer: Its TNF-α is 55.1 pg/mL.

Question: What about the Leucocyte [3] of the same compound?
Answer: The Leucocyte was 6.79 10^9/L.

Question: What about the Lymphocyte [3] of the same compound?
Answer: The Lymphocyte was 73.19 10^9/L.

Question: And the Neutrophil [3]?
Answer: Its Neutrophil is 22.06 10^9/L.

Question: What about the Ashcroft scores [3] of the same compound?
Answer: Its Ashcroft scores is 1.38.
